# Calls of active or inactive are those of the source. The rule behind the calls is not given here.
# Legend:
# Liver carboxylesterase [1] = target: T1, Liver carboxylesterase (Sus scrofa, UniProt Q29550); test: Prodrug release assessed as pig liver esterase-mediated H2S and fluorescent coumarin release by measuring half life of drug at 500 uM by HPLC analysis; format: ADME
# T1 sequence (Q29550 whole entry): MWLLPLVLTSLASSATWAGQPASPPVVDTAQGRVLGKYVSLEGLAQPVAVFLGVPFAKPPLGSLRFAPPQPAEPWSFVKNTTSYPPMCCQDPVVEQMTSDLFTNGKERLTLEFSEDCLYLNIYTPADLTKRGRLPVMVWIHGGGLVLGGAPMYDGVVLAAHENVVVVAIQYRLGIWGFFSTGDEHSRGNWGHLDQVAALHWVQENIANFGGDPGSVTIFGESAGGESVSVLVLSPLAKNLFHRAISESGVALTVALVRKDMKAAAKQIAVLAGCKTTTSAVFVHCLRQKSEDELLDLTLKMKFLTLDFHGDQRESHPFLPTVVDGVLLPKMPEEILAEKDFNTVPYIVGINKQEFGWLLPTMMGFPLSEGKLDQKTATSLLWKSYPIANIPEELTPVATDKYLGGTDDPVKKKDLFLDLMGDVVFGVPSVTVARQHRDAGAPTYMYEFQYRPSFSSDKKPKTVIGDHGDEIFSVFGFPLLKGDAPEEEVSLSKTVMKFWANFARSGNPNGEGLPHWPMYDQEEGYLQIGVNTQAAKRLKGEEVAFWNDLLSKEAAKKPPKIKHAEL
# [2] = Prodrug release in Sprague-Dawley rat plasma assessed as increase in fluorescence intensity by measuring half life at 500 uM by fluorescence based analysis; format: ADME, cell-free
# [3] = Drug uptake in C57BL/6J mouse kidney assessed as increase in fluorescence intensity at 100 umol/kg, iv measured after 10 mins by Ex vivo fluorescent imaging analysis; format: ADME, organism-based; settings: dose 100 µmol/kg
# [4] = Drug uptake in C57BL/6J mouse brain assessed as increase in fluorescence intensity at 100 umol/kg, iv measured after 10 mins by Ex vivo fluorescent imaging analysis; format: ADME, organism-based; settings: dose 100 µmol/kg
# [5] = Drug uptake in C57BL/6J mouse liver assessed as increase in fluorescence intensity at 100 umol/kg, iv measured after 10 mins by Ex vivo fluorescent imaging analysis; format: ADME, organism-based; settings: dose 100 µmol/kg
# Mus musculus [6] = test: Protection against cerebral infarction in C57BL/6JNifdc mouse tMCAO model assessed as decrease in infarction area in brain at 100 umol/kg, iv measured after 24 hrs by TTC staining based analysis; format: functional, organism-based; settings: dose 100.0 µmol/kg
# Mus musculus [7] = test: Anticoagulant activity in C57BL/6J mouse assessed as tail bleeding time at 40 mg/kg, ip and measured for 40 mins; format: functional
# [8] = Prodrug release in Sprague-Dawley rat plasma assessed as fluorescence intensity at 500 uM by fluorescence based analysis; format: ADME, cell-free
# Mus musculus [9] = test: Protection against cerebral infarction in C57BL/6JNifdc mouse tMCAO model assessed as decrease in MDA level in serum at 100 umol/kg, iv measured per mg protein after 24 hrs; format: functional; settings: dose 100 µmol/kg
# Mus musculus [10] = test: Protection against cerebral infarction in C57BL/6JNifdc mouse tMCAO model assessed as decrease in LDH level in brain at 100 umol/kg, iv measured after 24 hrs; format: functional, organism-based; settings: dose 100.0 µmol/kg
# [11] = Acute liver toxicity in C57BL/6J mouse assessed as ALT level in serum at 869 mg/kg, ip measured after 24 hrs; format: organism-based; settings: in vivo
# [12] = Acute liver toxicity in C57BL/6J mouse assessed as AST level in serum at 869 mg/kg, ip measured after 24 hrs; format: organism-based; settings: in vivo
# [13] = Acute liver toxicity in C57BL/6J mouse assessed as ALP level in serum at 869 mg/kg, ip measured after 24 hrs; format: organism-based; settings: in vivo
# [14] = Acute liver toxicity in C57BL/6J mouse assessed as gamma-GT level in liver at 869 mg/kg, ip measured after 24 hrs; format: organism-based; settings: in vivo
# Mus musculus [15] = test: Acute renal toxicity in C57BL/6J mouse assessed as albumin level in serum at 869 mg/kg, ip measured after 24 hrs; format: organism-based; settings: in vivo
# Mus musculus [16] = test: Acute renal toxicity in C57BL/6J mouse assessed as GSH level in kidney at 869 mg/kg, ip measured after 24 hrs; format: organism-based; settings: in vivo
# [17] = Acute toxicity in C57BL/6J mouse assessed as total protein level at 869 mg/kg, ip measured after 24 hrs; format: organism-based; settings: in vivo
# [18] = Acute toxicity in C57BL/6J mouse assessed as total bilirubin level in serum at 869 mg/kg, ip measured after 24 hrs; format: organism-based; settings: in vivo
# [19] = Acute toxicity in C57BL/6J mouse assessed as creatinine level in serum at 869 mg/kg, ip measured after 24 hrs; format: organism-based; settings: in vivo
# [20] = Acute toxicity in C57BL/6J mouse assessed as uric acid level in serum at 869 mg/kg, ip measured after 24 hrs; format: organism-based; settings: in vivo
# [21] = Acute toxicity in C57BL/6J mouse assessed as SOD level at 869 mg/kg, ip measured after 24 hrs; format: organism-based; settings: in vivo
# [22] = Acute toxicity in C57BL/6J mouse assessed as morphological changes in liver at 869 mg/kg, ip measured after 24 hrs by Hematoxylin-Eosin staining based analysis; format: organism-based; settings: in vivo
# [23] = Acute toxicity in C57BL/6J mouse assessed as morphological changes in kidney at 869 mg/kg, ip measured after 24 hrs by Hematoxylin-Eosin staining based analysis; format: organism-based; settings: in vivo
# [24] = Acute toxicity in C57BL/6J mouse assessed as visible bleeding in cerebral area at 869 mg/kg, ip measured after 24 hrs; format: organism-based; settings: in vivo
# Mus musculus [25] = test: Anticoagulant activity in C57BL/6J mouse assessed as prothrombin time at 40 mg/kg, ip; format: functional, organism-based
# Mus musculus [26] = test: Anticoagulant activity in C57BL/6J mouse assessed as activated partial thromboplastin time at 40 mg/kg, ip; format: functional, organism-based
# Liver carboxylesterase [27] = target: T1, Liver carboxylesterase; test: Prodrug release assessed as pig liver esterase-mediated H2S and fluorescent coumarin release by measuring half life of drug at 500 uM by fluorescence based analysis; format: ADME
# Liver carboxylesterase [28] = target: T1, Liver carboxylesterase; test: Prodrug release assessed as pig liver esterase-mediated H2S and fluorescent coumarin release at 500 uM incubated for 24 hrs in presence of esterase inhibitor by HPLC analysis; format: ADME; settings: isolated protein
# Liver carboxylesterase [29] = target: T1, Liver carboxylesterase; test: Prodrug release assessed as pig liver esterase-mediated H2S and coumarin release by measuring H2S concentration at 500 uM measured after 12 hrs by methylene blue method; format: ADME; settings: isolated protein
# [30] = Prodrug release in Sprague-Dawley rat plasma assessed as fluorescence intensity at 500 uM measured after 24 hrs in presence of esterase inhibitor by fluorescence based analysis; format: ADME, cell-free
# [31] = Prodrug release in C57BL/6J mouse kidney assessed as H2S generation by measuring increase in fluorescence intensity at 100 umol/kg, iv measured after 6 hrs by Ex vivo fluorescent imaging analysis; format: ADME, organism-based; settings: dose 100 µmol/kg
# [32] = Prodrug release in C57BL/6J mouse brain assessed as H2S generation by measuring increase in fluorescence intensity at 100 umol/kg, iv measured after 6 hrs by Ex vivo fluorescent imaging analysis; format: ADME, organism-based; settings: dose 100 µmol/kg
# [33] = Prodrug release in C57BL/6J mouse liver assessed as H2S generation by measuring increase in fluorescence intensity at 100 umol/kg, iv measured after 6 hrs by Ex vivo fluorescent imaging analysis; format: ADME, organism-based; settings: dose 100 µmol/kg
# [34] = Prodrug release in C57BL/6J mouse kidney assessed as increase in fluorescence intensity at 100 umol/kg, iv measured after 6 hrs by fluorescence based analysis; format: ADME, organism-based; settings: in vivo, dose 100 µmol/kg
# [35] = Prodrug release in C57BL/6J mouse brain assessed as increase in fluorescence intensity at 100 umol/kg, iv measured after 6 hrs by fluorescence based analysis; format: ADME, organism-based; settings: in vivo, dose 100 µmol/kg
# [36] = Prodrug release in C57BL/6J mouse liver assessed as increase in fluorescence intensity at 100 umol/kg, iv measured after 6 hrs by fluorescence based analysis; format: ADME, organism-based; settings: in vivo, dose 100 µmol/kg
compound,measurement,setting,value
COc1ccc2cc3c(C)cc(=S)oc3cc2c1,t1/2,Liver carboxylesterase [1],> 120 h
same,t1/2,[2],9.06 h
Cc1cc(=S)oc2cc3cc(O)ccc3cc12,t1/2,Liver carboxylesterase [1],> 120 h
same,t1/2,[2],52.4 h
Cc1cc(=S)oc2cc(N(C)C)ccc12,t1/2,Liver carboxylesterase [1],> 120 h
same,t1/2,[2],36.22 h
Cc1cc(=O)oc2cc(O)ccc12 [HYMECROMONE],Drug uptake,[3],Active
same,Drug uptake,[4],Active
same,Drug uptake,[5],Active
same,Activity,Mus musculus [6],Active; Slight Decrease Compared To Thio-Coumarins (Sulfide Prodrugs)
same,Time,Mus musculus [7],13.99 min
S=c1ccc2ccccc2o1,t1/2,Liver carboxylesterase [1],94.44 h
same,Drug metabolism,[8],metabolite_notdetected
CCN(CC)c1ccc2c(C)cc(=O)oc2c1,Activity,Mus musculus [6],Active; Slight Decrease Compared To Thio-Coumarins (Sulfide Prodrugs)
same,Time,Mus musculus [7],9.58 min
Nc1ccc2c(C(F)(F)F)cc(=S)oc2c1,t1/2,Liver carboxylesterase [1],> 120 h
same,t1/2,[2],9.43 h
S=c1ccc2cc3ccoc3cc2o1,t1/2,Liver carboxylesterase [1],62.89 h
same,t1/2,[2],3.95 h
same,Activity,Mus musculus [6],Active
same,Activity,Mus musculus [9],14.14 nmol
same,Activity,Mus musculus [10],Active
same,Activity,[11],Non-toxic
same,Activity,[12],Non-toxic
same,Activity,[13],Non-toxic
same,Activity,[14],Non-toxic
same,Activity,Mus musculus [15],Non-toxic
same,Activity,Mus musculus [16],Non-toxic
same,Activity,[17],Non-toxic
same,Activity,[18],Non-toxic
same,Activity,[19],Non-toxic
same,Activity,[20],Non-toxic
same,Activity,[21],Non-toxic
same,Activity,[22],Non-toxic
same,Activity,[23],Non-toxic
same,Activity,[24],Non-toxic
same,Time,Mus musculus [7],16.52 min
same,Activity,Mus musculus [25],Active; Retained The Anticoagulant Activity Of Coumarins Observed
same,Activity,Mus musculus [26],Active; Retained The Anticoagulant Activity Of Coumarins Observed
Cc1cc(=S)oc2cc(O)ccc12,t1/2,Liver carboxylesterase [27],50.4 h
same,t1/2,Liver carboxylesterase [1],57.59 h
same,Drug metabolism,Liver carboxylesterase [28],metabolite_notdetected
same,Drug metabolism,Liver carboxylesterase [29],31.46 µM
same,t1/2,[2],2.52 h
same,Drug metabolism,[30],metabolite_notdetected
same,Drug metabolism,[31],metabolite_detected
same,Drug metabolism,[32],metabolite_detected
same,Drug metabolism,[33],metabolite_detected
same,Drug metabolism,[34],metabolite_detected
same,Drug metabolism,[35],metabolite_detected
same,Drug metabolism,[36],metabolite_detected
same,Activity,Mus musculus [6],Active
same,Activity,Mus musculus [9],7.59 nmol
same,Activity,Mus musculus [10],Active
same,Time,Mus musculus [7],10.84 min
same,Activity,Mus musculus [25],Active; Retained The Anticoagulant Activity Of Coumarins Observed
same,Activity,Mus musculus [26],Active; Retained The Anticoagulant Activity Of Coumarins Observed
O=c1ccc2cc3ccoc3cc2o1 [PSORALEN],Activity,Mus musculus [6],Active; Slight Decrease Compared To Thio-Coumarins (Sulfide Prodrugs)
same,Time,Mus musculus [7],22.24 min
S=c1ccc2ccc3occc3c2o1,t1/2,Liver carboxylesterase [1],66.71 h
same,Drug metabolism,[8],metabolite_notdetected
CCN(CC)c1ccc2c(C)cc(=S)oc2c1,t1/2,Liver carboxylesterase [1],> 120 h
same,Activity,Mus musculus [6],Active
same,Activity,Mus musculus [9],7.4 nmol
same,Activity,Mus musculus [10],Active
same,Time,Mus musculus [7],16.6 min
same,Activity,Mus musculus [25],Active; Retained The Anticoagulant Activity Of Coumarins Observed
same,Activity,Mus musculus [26],Active; Retained The Anticoagulant Activity Of Coumarins Observed
CCN(CC)c1ccc2c(CN(C)O)cc(=S)oc2c1,t1/2,Liver carboxylesterase [1],> 120 h
same,t1/2,[2],5.78 h

# Reference: ChEMBL document CHEMBL6134812, “A thiocoumarin based self-reporting sulfide prodrug strategy with a favorable safety profile” (Eur J Med Chem, 2025)
